From patent publication US20090239941A1, “AMINO ACID DERIVATIVES” (PROXIMAGEN LTD., priority 2006, published 2009)

Tested on: 6-OHDA-lesioned rats
Assay: Assessment of activity in 6-OHDA-lesioned rats (induction of rotational activity)
Type: in vivo, rat
Conditions: p.o., 63.4 μmole/kg, after benserazide 10 mg/kg; rotations over 4 hours; male Wistar rats

## CC(C)CC(=O)Oc1ccc(C[C@H](N)C(N)=O)cc1OC(=O)CC(C)C.Cl [Example 5, (S)-2-[3,4-Bis-(3-methylbutyryloxy)-phenyl]-1-carbamoylethylammonium chloride]
  Duration of activity as % of that of L-Dopa: 71%
  Peak activity as % of that of L-Dopa: 118%
  Total activity (AUC activity, area under the locomotor-activity/time curve) as % of that of L-Dopa: 89%
